{"source": "patent EP0126580B1", "about": "(priority 1983, dated 1984)", "conditions": "rat, in vivo"}
{"smiles": "C[n+]1ccccc1/C=N/O", "note": "[2-PAMCl, 2-pralidoxime chloride]", "values": [{"measurement": "lethality", "value": "fatal to all rats"}, {"measurement": "time in which the blood concentration drops below therapeutic level (TL)", "value": "2 to 3", "unit": "h"}, {"measurement": "time therapeutic plasma drug level maintained", "value": "2-1/4 hours"}, {"measurement": "time to death after injection", "value": "≤ 30", "unit": "min"}, {"measurement": "blood drug level achieved", "setting": "im", "value": 20000, "unit": "ng/mL"}]}
